The text below walks through data of article PMC10377034, “Syntheses of 25-Adamantyl-25-alkyl-2-methylidene-1α,25-dihydroxyvitamin D3 Derivatives with Structure–Function Studies of Antagonistic and Agonistic Active Vitamin D Analogs” (Biomolecules, 2023).

Read-outs that look alike come from different tables or passages of the source.

Assay [1] deals with T1, hVDR (Homo sapiens, UniProt P11473).
T1 construct: expressed in transfected cells; host or cells: HEK293
T1 sequence (P11473 1-427): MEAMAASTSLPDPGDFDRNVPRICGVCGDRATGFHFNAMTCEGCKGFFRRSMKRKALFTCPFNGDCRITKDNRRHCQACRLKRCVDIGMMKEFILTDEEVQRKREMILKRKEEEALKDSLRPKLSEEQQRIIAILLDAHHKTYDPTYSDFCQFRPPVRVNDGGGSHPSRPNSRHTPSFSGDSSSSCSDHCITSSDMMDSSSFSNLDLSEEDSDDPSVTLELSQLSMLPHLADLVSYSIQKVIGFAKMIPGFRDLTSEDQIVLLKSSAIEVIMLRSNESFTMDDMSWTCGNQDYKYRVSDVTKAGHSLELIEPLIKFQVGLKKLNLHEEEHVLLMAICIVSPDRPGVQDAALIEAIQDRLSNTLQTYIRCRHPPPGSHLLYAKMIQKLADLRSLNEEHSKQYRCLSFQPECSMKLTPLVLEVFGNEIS
Briefly: VDR transactivation luciferase reporter assay in HEK293 cells (SPP×3-tk-LUC). The assay is classed as cell-based. The method, then:
The transcriptional activity of the 25-alkylvitamin D analogs on the VDR was evaluated via a luciferase reporter assay in HEK293 human kidney cells transfected with an hVDR expression vector and a luciferase reporter with mouse osteopontin vitamin D response elements (VDREs, SPP×3-tk-LUC).
Transfections of 50 ng of TK-Spp × 3-LUC reporter plasmid, 10 ng of pCMX-β-galactosidase, and 15 ng of pCMX-VDR for each well of a 96-well plate were performed in HEK293 cells using the calcium phosphate coprecipitation method, as described previously. The mammalian two-hybrid assay for cofactor interaction with VDR used 50 ng of TK-MH100(UAS) × 3- LUC reporter plasmid, 10 ng of pCMX-β-galactosidase, 15 ng of pCMX-GAL4-RXRα, pCMX-GAL4-SRC1, or pCMX-GAL4-NCoR, and 15 ng of pCMX-VP16-VDR for each well of a 96-well plate. Luciferase and β-galactosidase activities were measured with a luminometer and a microplate reader (Molecular Devices, Sun Jose, CA, USA), respectively. Luciferase values were normalized to the internal β-galactosidase control.
HEK293 cells were co-transfected with TK-Spp × 3-LUC reporter plasmid and pCMX−VDR, and 8 h after transfection the cells were treated with several concentrations of each compound. After 24 h, the cells were harvested for assaying luciferase and β-galactosidase activity using a luminometer (Molecular Devices, Sunnyvale, CA, USA).
(In a reporter assay the amount or activity of a reporter protein is the signal.)

For assay [2], the target named is T2, recombinant hVDR-LBD (Homo sapiens, UniProt P11473).
T2 sequence (P11473 140-427): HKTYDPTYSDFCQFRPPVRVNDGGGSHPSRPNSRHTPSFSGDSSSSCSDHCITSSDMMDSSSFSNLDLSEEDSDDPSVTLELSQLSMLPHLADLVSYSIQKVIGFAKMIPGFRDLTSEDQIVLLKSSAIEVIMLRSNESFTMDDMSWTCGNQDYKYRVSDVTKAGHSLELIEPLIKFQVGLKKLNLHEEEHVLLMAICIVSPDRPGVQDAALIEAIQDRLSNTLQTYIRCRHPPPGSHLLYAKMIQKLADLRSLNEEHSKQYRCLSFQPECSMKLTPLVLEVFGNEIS
The note with it: relative to 1,25(OH)2D3.
Protocol: (§1) The pGEX-hVDR and pGEX were expressed for a GST-VDR fusion protein and a control GST protein, respectively, in Escherichia coli BL21 (Merck, Darmstadt, Germany). The bacteria were lysed by sonication in a sonication buffer (50 mM Tris-HCl, pH 8.0, 50 mM NaCl, 1 mM EDTA, and 1 mM DTT). The supernatant proteins (1 μg) were diluted in a binding buffer (25 mM Tris, pH 7.5, 100 mM KCl, 25 mM DTT, 4 mM CHAPS, pH 7.5) containing bovine serum albumin (100 μg/mL). A solution containing each test compound in 15 μL of EtOH was added to 570 μL of the GST protein solution in each tube. After being vortexed 2–3 times, the mixture was incubated for 30 min at room temperature. […] After being vortexed 2–3 times, the whole mixture was allowed to stand at 4 °C for 20 h, and 400 μL of dextran-coated charcoal solution (Sigma) was added to remove free ligands.
(§2) All values represent the means, and error bars are the standard deviations derived from triplicate assays.

Assay [3] has as its target T2, recombinant hVDR-LBD. Briefly: biochemical.
Protocol: as §1, §2
In assay [4] the test system is CYP24A1 expression in MG63 cells. Briefly: CYP24A1 expression (RT-qPCR) in MG63 cells. The settings on record: MG63 bone cells, 100 nM, 24 h.
Protocol: (§3) HEK293 human kidney cells (RIKEN Cell Bank, Tsukuba, Japan) were cultured in Dulbecco’s modified Eagle’s medium (DMEM) (Fujifilm Wako Pure Chemical Corporation, Tokyo, Japan) containing 5% fetal bovine serum (FBS), 100 U/mL penicillin, and 0.1 mg/mL streptomycin (Nacalai Tesque, Kyoto, Japan). SW480 human colon carcinoma cells (American Type Culture Collection, Manassas, VA) and HaCaT immortalized keratinocyte cells (kindly provided by Dr. Tadashi Terui, Department of Dermatology, Nihon University School of Medicine) were cultured in DMEM containing 10% FBS, 100 U/mL penicillin, and 0.1 mg/mL streptomycin. MG63 human osteosarcoma cells (RIKEN Cell Bank) and lung-derived H292 cells (American Type Culture Collection) were cultured in minimum essential medium containing 10% FBS, 100 U/mL penicillin, and 0.1 mg/mL streptomycin. […] All cells were cultured at 37 °C in a humidified atmosphere containing 5% CO2.
(§4) For gene expression analysis, 1 × 10^4 cells per well were plated in a 24-well plate. After 24 h, the cells were treated with an ethanol control or 100 nM of each test compound for 24 h. […] Real-time PCR was performed on the ABI PRISM 7000 sequence detection system (Thermo Fisher Scientific, Waltham, MA, USA) using Power SYBR Green PCR master mix (Thermo Fisher Scientific).
Assay [5] concerns CYP24A1 expression in H292 cells. Briefly: CYP24A1 expression (RT-qPCR) in H292 cells. The note with it: H292 lung cells, 100 nM, 24 h. Background: Real-time PCR tracks product formation cycle by cycle.
Protocol: as §3, §4
In assay [6] the test system is CYP24A1 expression in SW480 cells. Briefly: CYP24A1 expression (RT-qPCR) in SW480 cells. The note with it: SW480 intestine cells, 100 nM, 24 h.
Protocol: as §3, §4
Assay [7] relates to CYP24A1 expression in HaCaT cells. The experiment in a line: CYP24A1 expression (RT-qPCR) in HaCaT cells. The settings on record: HaCaT skin cells, 100 nM, 24 h.
Protocol: SW480 human colon carcinoma cells (American Type Culture Collection, Manassas, VA) and HaCaT immortalized keratinocyte cells (kindly provided by Dr. Tadashi Terui, Department of Dermatology, Nihon University School of Medicine) were cultured in DMEM containing 10% FBS, 100 U/mL penicillin, and 0.1 mg/mL streptomycin. […] All cells were cultured at 37 °C in a humidified atmosphere containing 5% CO2.
For gene expression analysis, 1 × 10^4 cells per well were plated in a 24-well plate. After 24 h, the cells were treated with an ethanol control or 100 nM of each test compound for 24 h. The total RNAs from the samples were extracted using the acid guanidine thiocyanate phenol/chloroform method [57], and cDNAs were synthesized using the ImProm-II reverse transcription system (Promega, Madison, WI) [43]. Real-time PCR was performed on the ABI PRISM 7000 sequence detection system (Thermo Fisher Scientific, Waltham, MA, USA) using Power SYBR Green PCR master mix (Thermo Fisher Scientific).
One-way ANOVA followed by Turkey’s multiple comparisons: ※ p < 0.05, ※※ p < 0.01, ※※※ p < 0.001 versus vehicle control.
For assay [8], the target named is T3, VDR with RXRα (Homo sapiens, UniProt P11473).
T3 sequence (P11473 1-427): T1 sequence (P11473 1-427)
T3 sequence (P19793 1-462 partner): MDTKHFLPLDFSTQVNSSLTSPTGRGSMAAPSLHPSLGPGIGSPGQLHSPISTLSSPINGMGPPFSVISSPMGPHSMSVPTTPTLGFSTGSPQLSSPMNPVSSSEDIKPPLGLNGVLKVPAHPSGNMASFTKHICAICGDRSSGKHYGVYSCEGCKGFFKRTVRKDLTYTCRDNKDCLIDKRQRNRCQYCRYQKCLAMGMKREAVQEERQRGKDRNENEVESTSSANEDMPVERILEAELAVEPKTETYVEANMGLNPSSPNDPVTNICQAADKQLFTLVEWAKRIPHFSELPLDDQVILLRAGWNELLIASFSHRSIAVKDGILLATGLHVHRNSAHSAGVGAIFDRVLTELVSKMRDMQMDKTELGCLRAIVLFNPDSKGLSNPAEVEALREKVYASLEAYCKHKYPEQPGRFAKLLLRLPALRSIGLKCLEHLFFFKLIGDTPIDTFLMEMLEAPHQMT
The experiment in a line: Mammalian two-hybrid assay, interaction of the VDR with RXRα.
Protocol: (§5) We used the expression plasmids pCMX-VDR, pCMX-VP16- VDR, pCMX-GAL4-RXRα, pCMX-GAL4-SRC-1, and pCMX-GAL4- N-CoR, as reported previously [43]. […] We used luciferase reporters: VDR-responsive Sppx3-tk-LUC and GAL4-responsive MH100(UAS) × 4-tk-LUC reporters [43].
(§6) Transfections of 50 ng of TK-Spp × 3-LUC reporter plasmid, 10 ng of pCMX-β-galactosidase, and 15 ng of pCMX-VDR for each well of a 96-well plate were performed in HEK293 cells using the calcium phosphate coprecipitation method, as described previously [43]. The mammalian two-hybrid assay for cofactor interaction with VDR used 50 ng of TK-MH100(UAS) × 3- LUC reporter plasmid, 10 ng of pCMX-β-galactosidase, 15 ng of pCMX-GAL4-RXRα, pCMX-GAL4-SRC1, or pCMX-GAL4-NCoR, and 15 ng of pCMX-VP16-VDR for each well of a 96-well plate. Luciferase and β-galactosidase activities were measured with a luminometer and a microplate reader (Molecular Devices, Sun Jose, CA, USA), respectively. Luciferase values were normalized to the internal β-galactosidase control.
(§7) (B) Effects on the interactions between the VDR and SRC-1. HEK293 cells were co-transfected with CMX-GAL4-SRC-1, CMX-VP16-VDR, and MH100 (UAS) × 4-tk-LUC and were treated with each compound over a range of concentrations. (C) Effects on interactions of the VDR with NCoR-1. HEK293 cells were co-transfected with CMX-GAL4-N-CoR in combination with CMX-VP16-VDR and MH100 (UAS) × 4-tk-LUC and were treated with each compound over a range of concentrations.

The target of assay [9] is T4, VDR with NCoR (Homo sapiens, UniProt P11473).
T4 sequence (P11473 1-427): T1 sequence (P11473 1-427)
The experiment in a line: Mammalian two-hybrid assay, dissociation of NCoR from the VDR.
Protocol: as §5, §6, §7

A word on the EC50: it is the concentration at which the effect is half-maximal. Broadly, the IC50 is the concentration needed to halve the response being measured. With `C=C1[C@H](O)CC(=C/C=C2\CCC[C@]3(C)[C@@H]([C@H](C)CC#C[C@](O)(CCCC)C45CC6CC(CC(C6)C4)C5)CC[C@@H]23)C[C@H]1O` [ADKM6, (25S)-25-(1-Adamantyl)-1α,25-dihydroxy-2-methylidene-26-propyl-23-yne-19,27-dinorvitamin D3], the Transcriptional activity efficacy in [1] (1,25(OH)2D3 = 100%) stood at 95%. Also, the EC50 in assay [1] (read-out: Transcriptional activity EC50) is 0.62 nM; in [1] (this study, read-out: Transcriptional Activity EC50), 0.6 nM. Further, the Emax in assay [1] (this study, read-out: Transcriptional Activity % Efficacy of That of 1 (converted)) was 95%. In assay [2], the “VDR affinity, % of that of 1,25(OH)2D3” value was determined as 23%. For the same compound, the IC50 came to 1.6 nM in assay [3] and 0.4 nM in assay [9]. Further, the “CYP24A1 expression relative to natural hormone 1” value in [4] is 54.2%; in assay [5] it was 87.9%; in assay [6], 72.9%; in assay [7], 72.5%. Moreover, the “VDR-RXRα interaction EC50” value in [8] (HEK293 cells, two-hybrid) is “second-highest activity”. In assay [8] (compared to natural hormone 1), this compound had a VDR-RXRα interaction efficacy of 114%.
